The results in this text go back to PubChem BioAssay AID743186 (Broad Institute, 2013).

Molecules are shown by their SMILES. Activity calls are given as the source filed them. No rule for the calls is given here.

Assay [1] relates to Mycobacterium tuberculosis growth, OD600. Briefly: Confirmatory dose response, tuberculosis growth inhibitors, OD600 plate reader (AID 743186).
Experiment in assay [2]: as above
The note with it: Mycobacterium tuberculosis growth, OD600; at 6 µM (top of the series).

For `Clc1cccc(CNCCNCc2cccc(Cl)c2)c1`, the AC90 in assay [1] was > 6 µM (inactive). In the case of `CS(=O)(=O)Cc1nc2ccccc2oc1=O`, the AC90 in assay [1] was > 6 µM (inactive). In the case of `O=C(NC1CC2CCC1C2)C1COc2ccccc2O1` (stereo unspecified), in assay [2], the growth change, negative = inhibition is -8.57% (inactive).

For the compound `Cc1cc(NC(=O)C2CCCCC2)n(-c2nc3ccccc3[nH]2)n1`, the AC90 in assay [1] is > 6 µM (inactive). As to `CCOC(=O)c1c(C)n(C)c2ccc(OC(C)C(=O)OC)cc12` (stereo unspecified), the growth change, negative = inhibition in assay [2] is -3.72% (inactive). Regarding `COC(=O)COc1ccc2c(=O)c(Oc3ccccc3)c(C)oc2c1`, the AC90 in assay [1] is > 6 µM (inactive). For `NC(=O)C1(N2CCCCC2)CCN(C2CC(=O)N(CCc3ccccc3)C2=O)CC1` (stereo unspecified), the growth change, negative = inhibition in assay [2] is 12.1% (inactive). Consider `Cc1ccc(C)c(-c2csc(NC(=O)c3cnccn3)n2)c1`, for which, in assay [1], the AC90 is > 6 µM (inactive). Regarding `NC(=O)COc1ccc2cc(-c3ccc(F)cc3)c(=O)oc2c1`, the growth change, negative = inhibition in assay [2] was 0.842% (inactive).

Take `CCOC(=O)COc1ccc2c(=O)cc(-c3ccccc3)oc2c1`: the growth change, negative = inhibition in assay [2] was -72.2% (inactive). Turning to `Cc1cccc(Cn2ccc(NC(=O)c3ccc4c(c3)OCO4)n2)c1`, the AC90 in assay [1] is 1.67 µM. With `CCOC(=O)COc1ccc2c(=O)c(-c3ccccc3)coc2c1`, the growth change, negative = inhibition in assay [2] was -66.9% (inactive). Turning to `O=C(Nc1nc2ccccc2[nH]1)c1cccc(Cl)c1`, the AC90 in assay [1] is > 6 µM (inactive). Consider `NC1CCN(c2c(F)cc3c(=O)c(C(=O)O)cn(C4CC4)c3c2Cl)C1` (stereo unspecified), for which, in assay [1], the AC90 was 0.176 µM. `O=C(CCN1CCC(c2cccs2)=N1)c1cccs1`: the growth change, negative = inhibition in assay [2] was -5.74% (inactive).

Turning to `Cc1cc(C)n2nc(S(=O)(=O)Nc3c(Cl)cccc3Cl)nc2n1`, the AC90 in assay [1] was 3.89 µM. With `CCCCN(C/C=C/c1ccccc1OC)Cc1ccccc1`, in assay [1], the AC90 was > 6 µM (inactive). In the case of `c1ccc(Nc2nc(-c3ccccn3)cs2)cc1`, in assay [1], the AC90 is > 6 µM (inactive). `CCc1ccc(OCCCC(=O)NCc2ccco2)cc1`: the growth change, negative = inhibition in assay [2] is 2.01% (inactive). As to `Clc1cccc(-c2ccc(CNCc3ccccn3)o2)c1`, in assay [2], the growth change, negative = inhibition is -12.5% (inactive). As for `CCOC(=O)c1sc(NC(=O)CCN2CCOCC2)c(C(=O)OCC)c1C`, the growth change, negative = inhibition in assay [2] was 2.46% (inactive).

For the compound `Cc1cccc(C)c1N1C(=O)CC(N2CCSCC2)C1=O` (stereo unspecified), the AC90 in assay [1] is > 6 µM (inactive). Turning to `CC(=O)c1ccc(NC(=O)c2cc(CC(C)C)on2)cc1`, the growth change, negative = inhibition in assay [2] was -8.04% (inactive). As for `O=C(NCc1cccs1)c1ccc(Br)o1`, the AC90 in assay [1] was > 6 µM (inactive).

Turning to `O=C(OCCCCN1C(=O)c2ccccc2C1=O)c1ccc(Br)o1`, the growth change, negative = inhibition in assay [2] was 1.08% (inactive).

As to `Cc1nnc(NC(=O)c2ccc3ccccc3c2)o1`, the AC90 in assay [1] is 2.96 µM. For `O=C(OCc1ccc(Cl)c(Cl)c1)c1ccccn1`, in assay [2], the growth change, negative = inhibition was -2.92% (inactive).

As for `Brc1c(-c2ccc3c(c2)OCO3)nc2ncccn12`, in assay [1], the AC90 is 5.4 µM.

For the compound `CCCC(C)C(=O)Nc1ccc(Cl)cn1` (stereo unspecified), in assay [2], the growth change, negative = inhibition was -8.24% (inactive). On to `C=CCn1c(NC(=O)c2ccccc2)nc2ccccc21`, for which the AC90 in assay [1] was > 6 µM (inactive). As for `O=C(COc1cccc2ccccc12)Nc1nc2ccccc2[nH]1`, in assay [2], the growth change, negative = inhibition is 3.31% (inactive). The same measure, in the same setting: for `CCCOC(=O)c1ccc(NC(=O)c2ccc(Br)o2)cc1` the value was 4.84% (inactive); for `O=C(COc1c(Br)cc(Br)c2cccnc12)N1CCCCC1`, -5.71% (inactive); for `Fc1ccc(-c2ccc(CNCc3ccccn3)o2)cc1Cl`, -11.2% (inactive). In the case of `COC(=O)COc1cccc(NC(=O)c2ccc(Cl)cc2)c1`, the AC90 in assay [1] is > 6 µM (inactive). As for `CCOC(=O)COc1ccc2c(c1)C(=O)CC1(CCCCC1)O2`, in assay [2], the growth change, negative = inhibition is -49.6% (inactive).
